Activity calls are given as the source filed them. Cut-off read from the data, not from the text of the source, for most assays here: actives have a measured Kd and inactives only a lower limit.
Assays:
[1] = target: T1, Membrane-associated tyrosine- and threonine-specific cdc2-inhibitory kinase (Homo sapiens, UniProt Q99640)
T1 sequence (Q99640 whole entry): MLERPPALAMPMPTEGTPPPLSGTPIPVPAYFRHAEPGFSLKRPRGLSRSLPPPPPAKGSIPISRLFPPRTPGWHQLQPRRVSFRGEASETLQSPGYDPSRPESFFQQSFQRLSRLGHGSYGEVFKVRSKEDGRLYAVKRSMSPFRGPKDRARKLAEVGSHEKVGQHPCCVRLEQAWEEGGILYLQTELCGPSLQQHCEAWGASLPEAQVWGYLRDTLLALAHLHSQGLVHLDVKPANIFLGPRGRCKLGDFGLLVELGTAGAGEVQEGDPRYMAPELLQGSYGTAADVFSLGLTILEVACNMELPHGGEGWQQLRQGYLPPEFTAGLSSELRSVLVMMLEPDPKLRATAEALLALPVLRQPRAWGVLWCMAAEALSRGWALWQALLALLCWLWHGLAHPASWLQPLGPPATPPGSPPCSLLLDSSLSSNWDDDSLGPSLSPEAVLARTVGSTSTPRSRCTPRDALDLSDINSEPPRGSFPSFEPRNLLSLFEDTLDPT

[2] = target: T2, Aurora kinase A (Homo sapiens, UniProt O14965)
T2 sequence (O14965 whole entry): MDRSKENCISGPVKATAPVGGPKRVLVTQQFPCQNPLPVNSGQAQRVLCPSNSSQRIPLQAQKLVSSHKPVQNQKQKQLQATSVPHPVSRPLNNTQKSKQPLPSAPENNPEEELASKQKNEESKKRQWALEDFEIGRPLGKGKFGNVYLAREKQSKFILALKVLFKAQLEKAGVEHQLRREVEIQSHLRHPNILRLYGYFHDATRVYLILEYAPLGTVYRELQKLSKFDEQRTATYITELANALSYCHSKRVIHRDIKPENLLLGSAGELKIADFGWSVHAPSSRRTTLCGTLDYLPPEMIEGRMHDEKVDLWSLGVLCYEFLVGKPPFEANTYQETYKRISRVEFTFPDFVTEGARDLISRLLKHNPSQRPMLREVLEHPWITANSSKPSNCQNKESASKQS

[3] = target: Protein kinase C delta type (Homo sapiens, UniProt Q05655)
[4] = target: Mitogen-activated protein kinase kinase kinase kinase 1 (Homo sapiens, UniProt Q92918)
[5] = target: T3, Ephrin type-B receptor 6 (Homo sapiens, UniProt O15197)
T3 sequence (O15197 whole entry): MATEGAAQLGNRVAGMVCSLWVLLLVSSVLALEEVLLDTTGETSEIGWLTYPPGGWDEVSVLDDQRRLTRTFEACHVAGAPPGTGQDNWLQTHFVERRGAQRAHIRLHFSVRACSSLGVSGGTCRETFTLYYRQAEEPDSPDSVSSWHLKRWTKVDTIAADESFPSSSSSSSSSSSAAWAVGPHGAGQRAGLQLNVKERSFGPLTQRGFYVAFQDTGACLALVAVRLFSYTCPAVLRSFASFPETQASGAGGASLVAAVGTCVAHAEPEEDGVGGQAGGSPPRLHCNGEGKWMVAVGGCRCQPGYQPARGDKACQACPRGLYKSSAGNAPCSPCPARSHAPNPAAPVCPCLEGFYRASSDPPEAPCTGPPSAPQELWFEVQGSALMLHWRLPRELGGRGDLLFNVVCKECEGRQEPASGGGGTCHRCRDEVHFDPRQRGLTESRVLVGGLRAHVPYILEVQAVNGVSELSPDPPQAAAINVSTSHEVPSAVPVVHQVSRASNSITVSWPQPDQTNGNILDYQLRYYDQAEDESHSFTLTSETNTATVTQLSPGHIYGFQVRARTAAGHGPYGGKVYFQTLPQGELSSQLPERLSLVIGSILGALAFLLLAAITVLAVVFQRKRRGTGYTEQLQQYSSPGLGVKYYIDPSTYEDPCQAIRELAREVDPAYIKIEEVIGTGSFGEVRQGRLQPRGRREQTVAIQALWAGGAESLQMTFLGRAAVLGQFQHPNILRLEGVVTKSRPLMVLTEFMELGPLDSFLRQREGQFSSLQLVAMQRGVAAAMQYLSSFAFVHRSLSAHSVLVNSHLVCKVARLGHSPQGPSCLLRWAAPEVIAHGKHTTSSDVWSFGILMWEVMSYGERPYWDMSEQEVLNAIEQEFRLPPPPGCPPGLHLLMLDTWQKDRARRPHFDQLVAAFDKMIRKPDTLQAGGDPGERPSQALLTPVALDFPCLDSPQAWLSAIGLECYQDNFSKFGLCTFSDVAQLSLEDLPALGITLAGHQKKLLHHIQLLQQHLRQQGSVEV

[6] = target: Tyrosine-protein kinase HCK (Homo sapiens, UniProt P08631)
[7] = target: T4, Serine/threonine-protein kinase TAO3 (Homo sapiens, UniProt Q9H2K8)
T4 sequence (Q9H2K8 whole entry): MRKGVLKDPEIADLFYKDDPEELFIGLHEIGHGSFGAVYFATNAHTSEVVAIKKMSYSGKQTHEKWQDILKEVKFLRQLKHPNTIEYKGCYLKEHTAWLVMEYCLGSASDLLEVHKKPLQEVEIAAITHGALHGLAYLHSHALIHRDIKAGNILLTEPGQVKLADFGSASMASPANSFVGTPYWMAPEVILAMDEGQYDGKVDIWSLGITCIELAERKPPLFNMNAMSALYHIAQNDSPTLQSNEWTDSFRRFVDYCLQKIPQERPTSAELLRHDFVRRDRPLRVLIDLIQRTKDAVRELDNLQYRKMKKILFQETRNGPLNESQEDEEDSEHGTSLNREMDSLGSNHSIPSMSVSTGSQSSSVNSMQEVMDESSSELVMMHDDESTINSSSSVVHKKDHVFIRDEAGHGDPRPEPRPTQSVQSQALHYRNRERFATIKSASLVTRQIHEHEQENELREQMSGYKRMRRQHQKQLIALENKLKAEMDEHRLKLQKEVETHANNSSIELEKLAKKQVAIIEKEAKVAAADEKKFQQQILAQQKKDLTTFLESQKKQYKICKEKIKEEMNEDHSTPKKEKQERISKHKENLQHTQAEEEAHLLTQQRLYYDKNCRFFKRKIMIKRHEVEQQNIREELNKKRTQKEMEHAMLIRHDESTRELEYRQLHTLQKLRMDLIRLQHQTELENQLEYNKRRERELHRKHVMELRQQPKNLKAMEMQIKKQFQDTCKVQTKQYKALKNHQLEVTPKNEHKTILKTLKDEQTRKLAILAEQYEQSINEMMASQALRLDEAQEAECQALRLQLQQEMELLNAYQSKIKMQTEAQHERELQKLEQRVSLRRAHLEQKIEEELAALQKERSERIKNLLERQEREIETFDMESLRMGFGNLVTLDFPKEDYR
Note: in the data inactive means no Kd found up to 30 µM.

Chain of Mitogen-activated protein kinase kinase kinase kinase 1 (Q92918 whole entry): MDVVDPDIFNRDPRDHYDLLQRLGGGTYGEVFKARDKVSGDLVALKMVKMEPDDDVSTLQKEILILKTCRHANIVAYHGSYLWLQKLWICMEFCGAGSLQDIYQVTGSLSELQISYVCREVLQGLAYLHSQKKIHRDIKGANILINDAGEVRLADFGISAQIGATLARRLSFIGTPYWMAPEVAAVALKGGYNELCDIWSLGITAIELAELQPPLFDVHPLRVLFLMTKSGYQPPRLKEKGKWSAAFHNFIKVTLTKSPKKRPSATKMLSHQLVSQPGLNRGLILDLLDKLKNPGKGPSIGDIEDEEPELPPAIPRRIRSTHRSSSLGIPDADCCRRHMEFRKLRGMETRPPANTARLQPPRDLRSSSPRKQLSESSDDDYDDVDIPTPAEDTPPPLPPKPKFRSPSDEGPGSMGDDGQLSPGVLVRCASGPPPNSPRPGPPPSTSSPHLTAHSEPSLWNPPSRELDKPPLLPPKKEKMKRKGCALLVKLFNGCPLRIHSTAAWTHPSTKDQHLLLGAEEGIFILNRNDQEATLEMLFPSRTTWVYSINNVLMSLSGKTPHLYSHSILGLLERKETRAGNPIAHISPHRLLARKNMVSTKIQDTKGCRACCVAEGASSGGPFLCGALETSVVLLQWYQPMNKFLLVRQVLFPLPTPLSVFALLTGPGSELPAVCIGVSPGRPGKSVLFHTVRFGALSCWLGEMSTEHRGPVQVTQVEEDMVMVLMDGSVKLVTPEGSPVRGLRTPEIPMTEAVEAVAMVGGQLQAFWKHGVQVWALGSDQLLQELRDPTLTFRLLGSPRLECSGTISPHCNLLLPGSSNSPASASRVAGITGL
Chain of Protein kinase C delta type (Q05655 whole entry): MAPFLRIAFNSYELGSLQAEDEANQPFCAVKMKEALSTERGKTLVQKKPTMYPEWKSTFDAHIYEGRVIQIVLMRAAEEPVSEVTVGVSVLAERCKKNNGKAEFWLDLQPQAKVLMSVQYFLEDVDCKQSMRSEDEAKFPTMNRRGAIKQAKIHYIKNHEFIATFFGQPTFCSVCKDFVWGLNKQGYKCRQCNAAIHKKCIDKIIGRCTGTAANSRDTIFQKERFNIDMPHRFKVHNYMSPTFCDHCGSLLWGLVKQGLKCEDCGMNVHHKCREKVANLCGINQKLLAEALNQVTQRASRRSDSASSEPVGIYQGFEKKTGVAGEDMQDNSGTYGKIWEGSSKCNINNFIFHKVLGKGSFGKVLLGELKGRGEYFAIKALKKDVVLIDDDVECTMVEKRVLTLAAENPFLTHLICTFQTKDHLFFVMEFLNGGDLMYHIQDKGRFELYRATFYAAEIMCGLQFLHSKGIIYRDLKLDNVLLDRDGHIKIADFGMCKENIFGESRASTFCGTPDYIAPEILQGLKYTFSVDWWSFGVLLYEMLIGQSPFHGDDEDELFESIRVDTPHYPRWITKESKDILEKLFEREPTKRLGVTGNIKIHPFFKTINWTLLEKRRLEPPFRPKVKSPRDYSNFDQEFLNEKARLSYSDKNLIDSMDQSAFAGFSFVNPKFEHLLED
Chain of Tyrosine-protein kinase HCK (P08631 whole entry): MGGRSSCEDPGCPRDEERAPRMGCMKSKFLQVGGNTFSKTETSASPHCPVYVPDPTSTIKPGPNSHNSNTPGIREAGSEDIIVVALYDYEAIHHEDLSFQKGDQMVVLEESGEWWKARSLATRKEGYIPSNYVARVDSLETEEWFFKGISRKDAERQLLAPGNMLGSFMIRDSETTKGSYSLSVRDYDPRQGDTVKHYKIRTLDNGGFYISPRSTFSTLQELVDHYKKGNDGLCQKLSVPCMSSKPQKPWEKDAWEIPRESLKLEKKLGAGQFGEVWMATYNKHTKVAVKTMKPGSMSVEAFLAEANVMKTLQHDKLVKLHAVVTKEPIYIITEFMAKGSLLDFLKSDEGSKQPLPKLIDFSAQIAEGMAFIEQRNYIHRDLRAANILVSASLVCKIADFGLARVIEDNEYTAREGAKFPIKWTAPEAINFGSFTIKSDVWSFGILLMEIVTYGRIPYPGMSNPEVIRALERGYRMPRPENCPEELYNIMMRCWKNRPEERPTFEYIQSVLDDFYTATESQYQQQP

SMILES | Kd [1] | Kd [2] | Kd [3] | Kd [4] | Kd [5] | Kd [6] | Kd [7]
CC[C@@H]1C(=O)N(C)c2cnc(Nc3ccc(C(=O)N[C@H]4CC[C@H](N5CCN(CC6CC6)CC5)CC4)cc3OC)nc2N1C(C)C [VOLASERTIB] | > 30 µM (inactive) | > 30 µM (inactive) | > 30 µM (inactive) | > 30 µM (inactive) | > 30 µM (inactive) | > 30 µM (inactive) | > 30 µM (inactive)
CN1CC[C@@H](c2c(O)cc(O)c3c(=O)cc(-c4ccccc4Cl)oc23)[C@@H]1CO | > 30 µM (inactive) | > 30 µM (inactive) | 2.39 µM (active) | > 30 µM (inactive) | > 30 µM (inactive) | > 30 µM (inactive) | > 30 µM (inactive)
Cc1ccc(S(=O)(=O)Nc2nc3ccccc3nc2Nc2ccc3nsnc3c2)cc1 | > 30 µM (inactive) | > 30 µM (inactive) | > 30 µM (inactive) | > 30 µM (inactive) | > 30 µM (inactive) | > 30 µM (inactive) | > 30 µM (inactive)
COC(=O)N[C@@H](C)CNc1nccc(-c2cn(C(C)C)nc2-c2cc(Cl)cc(NS(C)(=O)=O)c2F)n1 [ENCORAFENIB] | > 30 µM (inactive) | > 30 µM (inactive) | > 30 µM (inactive) | > 30 µM (inactive) | > 30 µM (inactive) | > 30 µM (inactive) | 3.32 µM (active)
COCCNCc1ccc(-c2cc3nccc(Oc4ccc(NC(=S)NC(=O)Cc5ccc(F)cc5)cc4F)c3s2)nc1 [GLESATINIB] | > 30 µM (inactive) | > 30 µM (inactive) | > 30 µM (inactive) | > 30 µM (inactive) | > 30 µM (inactive) | 0.283 µM (active) | > 30 µM (inactive)
CCS(=O)(=O)N1CC(CC#N)(n2cc(-c3ncnc4[nH]ccc34)cn2)C1 [BARICITINIB] | > 30 µM (inactive) | > 30 µM (inactive) | 1.07 µM (active) | > 30 µM (inactive) | > 30 µM (inactive) | > 30 µM (inactive) | > 30 µM (inactive)
Cc1c(F)cc(C(=O)NC2CC2)cc1-c1ccc(C(=O)NCC(C)(C)C)cn1 [LOSMAPIMOD] | > 30 µM (inactive) | > 30 µM (inactive) | > 30 µM (inactive) | > 30 µM (inactive) | > 30 µM (inactive) | > 30 µM (inactive) | > 30 µM (inactive)
CO[C@H]1C[C@@H]2CC[C@@H](C)[C@@](O)(O2)C(=O)C(=O)N2CCCC[C@H]2C(=O)O[C@H]([C@H](C)C[C@@H]2CC[C@@H](OCCO)[C@H](OC)C2)CC(=O)[C@H](C)/C=C(\C)[C@@H](O)[C@@H](OC)C(=O)[C@H](C)C[C@H](C)/C=C/C=C/C=C/1C [EVEROLIMUS] | > 30 µM (inactive) | > 30 µM (inactive) | > 30 µM (inactive) | > 30 µM (inactive) | > 30 µM (inactive) | > 30 µM (inactive) | > 30 µM (inactive)
CCN1CCN(Cc2ccc(-c3cc4c(N[C@H](C)c5ccccc5)ncnc4[nH]3)cc2)CC1 [AEE-788] | > 30 µM (inactive) | > 30 µM (inactive) | > 30 µM (inactive) | > 30 µM (inactive) | > 30 µM (inactive) | > 30 µM (inactive) | > 30 µM (inactive)
CC(=O)Nc1cccc(-n2c(=O)n(C3CC3)c(=O)c3c(Nc4ccc(I)cc4F)n(C)c(=O)c(C)c32)c1 [TRAMETINIB] | > 30 µM (inactive) | > 30 µM (inactive) | > 30 µM (inactive) | > 30 µM (inactive) | > 30 µM (inactive) | > 30 µM (inactive) | > 30 µM (inactive)
C1=C/COCc2cc(ccc2OCCN2CCCC2)Nc2nccc(n2)-c2cccc(c2)COC/1 [PACRITINIB] | > 30 µM (inactive) | > 30 µM (inactive) | > 30 µM (inactive) | 0.16 µM | > 30 µM (inactive) | > 30 µM (inactive) | > 30 µM (inactive)
N[C@@H]1CCCN(c2c(/C=C3\SC(=O)NC3=O)cccc2-c2ccccc2)C1 | > 30 µM (inactive) | > 30 µM (inactive) | > 30 µM (inactive) | > 30 µM (inactive) | > 30 µM (inactive) | > 30 µM (inactive) | > 30 µM (inactive)
Cc1ccc(NC(=O)c2ccc(CN3CC[C@H](N(C)C)C3)c(C(F)(F)F)c2)cc1Nc1nccc(-c2cncnc2)n1 [BAFETINIB] | > 30 µM (inactive) | > 30 µM (inactive) | > 30 µM (inactive) | > 30 µM (inactive) | > 30 µM (inactive) | > 30 µM (inactive) | > 30 µM (inactive)
O=C(Nc1ccc(-c2ccnc(Nc3ccc(N4CCOCC4)cc3)n2)cc1)C1CCCN1 (configuration not stated) [XL-019] | > 30 µM (inactive) | > 30 µM (inactive) | > 30 µM (inactive) | > 30 µM (inactive) | > 30 µM (inactive) | > 30 µM (inactive) | > 30 µM (inactive)
O=C(c1ccc(F)c(F)c1Nc1ccc(I)cc1F)N1CC(O)([C@@H]2CCCCN2)C1 [COBIMETINIB] | > 30 µM (inactive) | > 30 µM (inactive) | > 30 µM (inactive) | > 30 µM (inactive) | > 30 µM (inactive) | > 30 µM (inactive) | > 30 µM (inactive)
C[C@@H]1CN(Cc2ccc(F)cc2)[C@@H](C)CN1C(=O)c1cc2c(C(=O)C(=O)N(C)C)cn(C)c2cc1Cl [TALMAPIMOD] | > 30 µM (inactive) | > 30 µM (inactive) | > 30 µM (inactive) | > 30 µM (inactive) | > 30 µM (inactive) | > 30 µM (inactive) | > 30 µM (inactive)
